A word on the Ki: it is a measure of affinity in units of concentration, obtained from inhibition or displacement.

IC50, MIC and Ki data for 17 compounds are collected here from ChEMBL document CHEMBL1123679, “5-Quinone derivatives of 2'-deoxyuridine 5'-phosphate: inhibition and inactivation of thymidylate synthase, antitumor cell, and antiviral studies” (J Med Chem, 1987).

Structures are written as SMILES. Values after ≈ are worked out from the molar mass of the structure shown.

Assay [1] relates to Raji. The assay can be described thus: Inhibition of human B-cell lymphoblast Raji cell proliferation. It is filed as functional. The note with it: read-out: ID50 (the source's name).
In assay [2] the test system is L1210. The assay can be described thus: Ability to inhibit the proliferation or tumor cell growth by 50% of the murine leukemia L1210 cells was determined. It is filed as functional. The note with it: Mus musculus, read-out: ID50 (the source's name).
The species named for assay [3] is Oryctolagus cuniculus. The assay can be described thus: Minimal inhibitory concentration required to cause a microscopically detectable alteration of normal cell morphology of rabbit kidney cell cultures. Format: functional.
For assay [4], the species on record is Oryctolagus cuniculus. The assay can be described thus: Minimal inhibitory concentration against HSV-2 (G)-induced cytopathogenicity by 50% in rabbit kidney cell cultures. Format: functional. (Cytopathic effects are the visible damage that an infection or toxin causes in cultured cells.)
Assay [5] is filed under the species Oryctolagus cuniculus. The assay is described as follows: Minimal inhibitory concentration against HSV-2 (Lyons)-induced cytopathogenicity by 50% in rabbit kidney cell cultures. Format: functional.
The species named for assay [6] is Oryctolagus cuniculus. The assay is described as follows: Minimal inhibitory concentration against vaccinia virus-induced cytopathogenicity by 50% in rabbit kidney cell cultures. It is filed as functional.
The species entered for assay [7] is Oryctolagus cuniculus. The assay can be described thus: Minimal inhibitory concentration against vesicular stomatitis virus-induced cytopathogenicity by 50% in rabbit kidney cell cultures. Format: functional.
The species entered for assay [8] is Oryctolagus cuniculus. The assay is described as follows: Minimal inhibitory concentration against HSV-1 (F)-induced cytopathogenicity by 50% in rabbit kidney cell cultures. It is filed as functional.
For assay [9], the species on record is Oryctolagus cuniculus. The assay can be described thus: Minimal inhibitory concentration against HSV-1 (KOS)-induced cytopathogenicity by 50% in rabbit kidney cell cultures. Format: functional.
For assay [10], the species on record is Oryctolagus cuniculus. The assay can be described thus: Minimal inhibitory concentration against HSV-1 (McIntyre)-induced cytopathogenicity by 50% in rabbit kidney cell cultures. Format: functional.
Assay [11] is filed under the species Oryctolagus cuniculus. The assay is described as follows: Minimal inhibitory concentration against HSV-2 (196)-induced cytopathogenicity by 50% in rabbit kidney cell cultures. It is filed as functional.
The nature of assay [12]: Ability to inhibit the proliferation or tumor cell growth by 50% of the human T-cell lymphoblast (Molt/4F) cells was determined. It is filed as functional. The note with it: read-out: ID50 (the source's name).
For assay [13], the species on record is Oryctolagus cuniculus. The assay can be described thus: Minimal inhibitory concentration required to cause a microscopically detectable alteration of normal cell morphology of rabbit kidney cell culture. It is filed as functional.
Assay [14] addresses T1, Thymidylate synthase (Lactobacillus casei, UniProt P00469).
T1 sequence (P00469 whole entry): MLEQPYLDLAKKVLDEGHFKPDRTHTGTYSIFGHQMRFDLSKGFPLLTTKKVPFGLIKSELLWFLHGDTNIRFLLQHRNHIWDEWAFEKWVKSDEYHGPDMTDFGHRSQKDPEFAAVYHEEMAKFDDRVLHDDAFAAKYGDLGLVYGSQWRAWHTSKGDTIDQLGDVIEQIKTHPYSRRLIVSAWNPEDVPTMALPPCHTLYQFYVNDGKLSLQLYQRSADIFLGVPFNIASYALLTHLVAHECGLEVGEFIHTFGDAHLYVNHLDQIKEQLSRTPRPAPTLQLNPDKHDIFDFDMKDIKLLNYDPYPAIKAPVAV
The assay can be described thus: Ability to inhibit the thymidylate synthase from Lactobacillus casei was determined and expressed as inhibition constant(Ki). Set-up: species or system Lacticaseibacillus casei.

Assay [15] has as its target Thymidylate synthase (Mus musculus, UniProt P07607). The assay can be described thus: Ability to inhibit the thymidylate synthase from murine leukemia L1210 cells was determined and expressed as inhibition constant(Ki). Format: cell-based.
Assay [16] concerns the target T1, Thymidylate synthase. The assay is described as follows: Ability to inhibit the thymidylate synthase from Lactobacillus casei was determined and expressed as inhibition constant (Ki). Set-up: species or system Lacticaseibacillus casei.
Assay [17] relates to Raji. The assay can be described thus: Inhibition of human B-cell lymphoblast Raji cell proliferation; Value ranges from (10-55.6). Format: functional. The note with it: read-out: ID50 (the source's name).

Sequence of Thymidylate synthase (Mus musculus, UniProt P07607) (P07607 whole entry): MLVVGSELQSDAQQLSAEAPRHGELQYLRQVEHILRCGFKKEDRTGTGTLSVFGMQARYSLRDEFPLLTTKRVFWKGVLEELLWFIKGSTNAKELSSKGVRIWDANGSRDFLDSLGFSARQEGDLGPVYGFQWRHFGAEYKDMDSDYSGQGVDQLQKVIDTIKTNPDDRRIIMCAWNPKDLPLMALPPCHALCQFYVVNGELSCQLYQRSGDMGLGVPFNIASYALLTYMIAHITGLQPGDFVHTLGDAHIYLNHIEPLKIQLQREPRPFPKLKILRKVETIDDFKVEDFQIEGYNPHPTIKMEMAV

`CC1=C(C)C(=O)C(c2cn([C@H]3C[C@H](O)[C@@H](CO)O3)c(=O)[nH]c2=O)=C(C)C1=O`: the IC50 in [1] was found to be 51.1 µg/mL (≈ 136 µM); in [2] it was 65.6 µg/mL (≈ 174 µM); in assay [12], 29.7 µg/mL (≈ 78.9 µM). For the same compound, the MIC in assay [3] was more than 200 µg/mL; in assay [4] it was more than 200 µg/mL; in assay [5], more than 200 µg/mL; in assay [6], more than 200 µg/mL; in assay [7] it was more than 100 µg/mL; in [8], more than 200 µg/mL. Moreover, the MIC in assay [9], in assay [10] and in assay [11] was more than 200 µg/mL each time.

Consider `O=C1C=CC(=O)C(c2cn([C@H]3C[C@H](O)[C@@H](CO)O3)c(=O)[nH]c2=O)=C1`, for which the IC50 in assay [1] is more than 100 µg/mL; in assay [2], 35.7 µg/mL (≈ 107 µM); in assay [12] it was more than 100 µg/mL. Besides, the MIC in [4] was 70 µg/mL (≈ 209 µM); in assay [5], 70 µg/mL (≈ 209 µM); in assay [6], 70 µg/mL (≈ 209 µM); in [7] it was more than 200 µg/mL; in assay [8], 20 µg/mL (≈ 59.8 µM); in assay [9], 20 µg/mL (≈ 59.8 µM). Further, the MIC turned out to be 150 µg/mL (≈ 449 µM) in assay [10] and 70 µg/mL (≈ 209 µM) in [11].

Regarding `O=c1[nH]c(=O)n([C@H]2C[C@H](O)[C@@H](CO)O2)cc1I` [IDOXURIDINE], the MIC in assay [13] was more than 400 µg/mL; in assay [4], 0.7 µg/mL (≈ 1.98 µM); in [5], 0.7 µg/mL (≈ 1.98 µM); in assay [6], 0.7 µg/mL (≈ 1.98 µM); in [7], more than 400 µg/mL; in assay [8], 0.7 µg/mL (≈ 1.98 µM). Further, the MIC in assay [9] amounted to 0.2 µg/mL (≈ 0.565 µM); in assay [10], 0.7 µg/mL (≈ 1.98 µM); in assay [11] it was 1 µg/mL (≈ 2.82 µM).

As for `CC1=C(c2cn([C@H]3C[C@H](O)[C@@H](CO)O3)c(=O)[nH]c2=O)C(=O)c2ccccc2C1=O`, the IC50 in [1] came to 33.5 µg/mL (≈ 84.1 µM); in assay [2], 27.4 µg/mL (≈ 68.8 µM); in [12] it was 30.9 µg/mL (≈ 77.6 µM). For the same compound, the MIC in assay [3] is 40 µg/mL (≈ 100 µM); in assay [4], more than 10 µg/mL; in assay [5], more than 10 µg/mL; in assay [6], more than 10 µg/mL; in assay [7], more than 10 µg/mL; in assay [8] it was more than 10 µg/mL. In addition, the MIC in assay [9], in assay [10] and in assay [11] was more than 10 µg/mL each time.

Regarding `CC1=C(C)C(=O)C(c2cn([C@H]3C[C@H](O)[C@@H](COP(=O)(O)O)O3)c(=O)[nH]c2=O)=CC1=O`, the Ki was found to be 590 nM in assay [14] and 6100 nM in [15].

As for `CC1=C(C)C(=O)C(c2cn([C@H]3C[C@H](O)[C@@H](COP(=O)(O)O)O3)c(=O)[nH]c2=O)=C(C)C1=O`, the Ki in [14] came to 1300 nM; in assay [15], 5100 nM.

`COc1c(C)c(-c2cn([C@H]3C[C@H](O)[C@@H](COP(=O)(O)O)O3)c(=O)[nH]c2=O)c(OC)c2ccccc12` had a Ki in [14] of 2400 nM.

Compound `COc1c(C)c(C)c(OC)c(-c2cn([C@H]3C[C@H](O)[C@@H](COP(=O)(O)O)O3)c(=O)[nH]c2=O)c1C` came in with a Ki in assay [14] of 1400 nM. This Ki lies about 1.7-fold lower than the previous one.

`COc1cc(-c2cn([C@H]3C[C@H](O)[C@@H](CO)O3)c(=O)[nH]c2=O)c(OC)c(C)c1C`: the IC50 in [1], in [2] and in assay [12] was more than 100 µg/mL each time.

In turn, `COc1cc(-c2cn([C@H]3C[C@H](O)[C@@H](COP(=O)(O)O)O3)c(=O)[nH]c2=O)c(OC)c(C)c1C` returned a Ki in [16] of 3600 nM.

In the case of `O=c1[nH]c(=O)n([C@H]2C[C@H](O)[C@@H](CO)O2)cc1[N+](=O)[O-]`, the IC50 in assay [2] was 0.003 µg/mL (≈ 0.011 µM).

Take `CC1=C(c2cn([C@H]3C[C@H](O)[C@@H](COP(=O)(O)O)O3)c(=O)[nH]c2=O)C(=O)c2ccccc2C1=O`: the values for the Ki in assay [14] and in assay [15] were 610 nM and 1900 nM, respectively.

Turning to `O=C1C=CC(=O)C(c2cn([C@H]3C[C@H](O)[C@@H](COP(=O)(O)O)O3)c(=O)[nH]c2=O)=C1`, the affinity in assay [14], expressed as Ki, was 2000 nM.

Consider `CC1=C(C)C(=O)C(c2cn([C@H]3C[C@H](O)[C@@H](CO)O3)c(=O)[nH]c2=O)=CC1=O`, for which the figures for the IC50 in assay [1], in assay [2] and in assay [12] were more than 100 µg/mL, 40.5 µg/mL (≈ 112 µM) and 66.8 µg/mL (≈ 184 µM), respectively. The MIC in assay [3] is 200 µg/mL (≈ 552 µM); in assay [4], more than 100 µg/mL; in assay [5], 70 µg/mL (≈ 193 µM); in assay [6] it was more than 100 µg/mL; in assay [7], more than 100 µg/mL; in assay [8], more than 100 µg/mL. Besides, the values for the MIC in [9], in assay [10] and in [11] were 150 µg/mL (≈ 414 µM), 70 µg/mL (≈ 193 µM) and 70 µg/mL (≈ 193 µM), respectively.

Regarding `COc1c(C)c(C)c(OC)c(-c2cn([C@H]3C[C@H](O)[C@@H](CO)O3)c(=O)[nH]c2=O)c1C`, the IC50 in assay [1], in [2] and in assay [12] was more than 100 µg/mL each time.

With `COc1c(C)c(-c2cn([C@H]3C[C@H](O)[C@@H](CO)O3)c(=O)[nH]c2=O)c(OC)c2ccccc12`, the IC50 in assay [17] is 55.6 µg/mL (≈ 130 µM); in assay [2] it was more than 100 µg/mL; in assay [12], more than 100 µg/mL.

For `O=c1[nH]c(=O)n([C@H]2C[C@H](O)[C@@H](CO)O2)cc1Br` [BROXURIDINE], the MIC was more than 400 µg/mL in [3]; 2 µg/mL (≈ 6.51 µM) in assay [4]; 20 µg/mL (≈ 65.1 µM) in [5]; 7 µg/mL (≈ 22.8 µM) in assay [6]; more than 400 µg/mL in [7]; 0.07 µg/mL (≈ 0.228 µM) in assay [8]. Further, the MIC in assay [9] came out at 0.02 µg/mL (≈ 0.0651 µM); in assay [10] it was 0.02 µg/mL (≈ 0.0651 µM); in assay [11], 10 µg/mL (≈ 32.6 µM).
